PubChem BioAssay (NCI)
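All cell lines were grown in 96-well plates and treated with compound for 48 hours. Here, GI50 denotes the concentration required for 50% inhibition of growth. TGI is the concentration that stops growth completely.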

Columns and labels:
Assay in all cases: NCI-60 cell line screen, 48 h
HCT-15 colon = tested on: HCT-15 colon
SN12C renal = tested on: SN12C renal
786-0 renal = tested on: 786-0 renal
CCRF-CEM leukemia = tested on: CCRF-CEM leukemia
RPMI-8226 leukemia = tested on: RPMI-8226 leukemia
HCT-116 colon = tested on: HCT-116 colon
SK-MEL-5 melanoma = tested on: SK-MEL-5 melanoma
CAKI-1 renal = tested on: CAKI-1 renal
KM12 colon = tested on: KM12 colon
NCI-H226 lung = tested on: NCI-H226 lung
UO-31 renal = tested on: UO-31 renal
M14 melanoma = tested on: M14 melanoma
SK-OV-3 ovarian = tested on: SK-OV-3 ovarian
MDA-MB-231 breast = tested on: MDA-MB-231 breast
A549 NSCLC = tested on: A549 NSCLC
SR leukemia = tested on: SR leukemia
PC-3 prostate = tested on: PC-3 prostate
LOX IMVI melanoma = tested on: LOX IMVI melanoma
T-47D breast = tested on: T-47D breast
TK-10 renal = tested on: TK-10 renal
SK-MEL-28 melanoma = tested on: SK-MEL-28 melanoma
OVCAR-8 ovarian = tested on: OVCAR-8 ovarian
HT29 colon = tested on: HT29 colon
MCF7 breast = tested on: MCF7 breast
MOLT-4 leukemia = tested on: MOLT-4 leukemia
IGROV1 ovarian = tested on: IGROV1 ovarian
NCI/ADR-RES ovarian = tested on: NCI/ADR-RES ovarian
U251 CNS = tested on: U251 CNS
HOP-92 NSCLC = tested on: HOP-92 NSCLC
EKVX NSCLC = tested on: EKVX NSCLC
NCI-H460 lung = tested on: NCI-H460 lung
HL-60(TB) leukemia = tested on: HL-60(TB) leukemia
COLO 205 colon = tested on: COLO 205 colon
OVCAR-4 ovarian = tested on: OVCAR-4 ovarian
OVCAR-5 ovarian = tested on: OVCAR-5 ovarian
HOP-62 NSCLC = tested on: HOP-62 NSCLC
SF-539 CNS = tested on: SF-539 CNS
NCI-H23 lung = tested on: NCI-H23 lung
NCI-H522 lung = tested on: NCI-H522 lung
RXF 393 renal = tested on: RXF 393 renal
SF-268 CNS = tested on: SF-268 CNS
A498 renal = tested on: A498 renal
UACC-62 melanoma = tested on: UACC-62 melanoma
OVCAR-3 ovarian = tested on: OVCAR-3 ovarian
MALME-3M melanoma = tested on: MALME-3M melanoma
SNB-19 CNS = tested on: SNB-19 CNS
K-562 leukemia = tested on: K-562 leukemia
SF-295 CNS = tested on: SF-295 CNS
SW-620 colon = tested on: SW-620 colon
SNB-75 CNS = tested on: SNB-75 CNS
SK-MEL-2 melanoma = tested on: SK-MEL-2 melanoma
HCC-2998 colon = tested on: HCC-2998 colon
BT-549 breast = tested on: BT-549 breast
DU-145 prostate = tested on: DU-145 prostate
MDA-MB-435 = tested on: MDA-MB-435
ACHN renal = tested on: ACHN renal
HS 578T breast = tested on: HS 578T breast
UACC-257 melanoma = tested on: UACC-257 melanoma

O=C(Nc1cccc(Cl)c1)Nc1nccs1
GI50 (HCT-15 colon): 20.5 µM
TGI (HCT-15 colon): > 100 µM
GI50 (SN12C renal): 37.1 µM
TGI (SN12C renal): > 100 µM
GI50 (786-0 renal): 26.6 µM
TGI (786-0 renal): 63 µM
GI50 (CCRF-CEM leukemia): 27 µM
TGI (CCRF-CEM leukemia): > 100 µM
GI50 (RPMI-8226 leukemia): 26 µM
TGI (RPMI-8226 leukemia): 79.3 µM
GI50 (HCT-116 colon): 26.8 µM
TGI (HCT-116 colon): > 100 µM
GI50 (SK-MEL-5 melanoma): 15.2 µM
TGI (SK-MEL-5 melanoma): 30.6 µM
GI50 (CAKI-1 renal): 15.6 µM
TGI (CAKI-1 renal): 43.5 µM
GI50 (KM12 colon): 8.5 µM
TGI (KM12 colon): 37.5 µM
GI50 (NCI-H226 lung): 38.7 µM
TGI (NCI-H226 lung): > 100 µM
GI50 (UO-31 renal): 17.7 µM
TGI (UO-31 renal): 53.6 µM
GI50 (M14 melanoma): 30.2 µM
TGI (M14 melanoma): > 100 µM
GI50 (SK-OV-3 ovarian): 20.8 µM
TGI (SK-OV-3 ovarian): 63.9 µM
GI50 (MDA-MB-231 breast): 18 µM
TGI (MDA-MB-231 breast): 41.8 µM
GI50 (A549 NSCLC): 26.5 µM
TGI (A549 NSCLC): > 100 µM
GI50 (SR leukemia): 13.6 µM
TGI (SR leukemia): 46.7 µM
GI50 (PC-3 prostate): 24.6 µM
TGI (PC-3 prostate): 94.8 µM
GI50 (LOX IMVI melanoma): 26.9 µM
TGI (LOX IMVI melanoma): > 100 µM
GI50 (T-47D breast): 12.7 µM
TGI (T-47D breast): 78 µM
GI50 (TK-10 renal): 25.8 µM
TGI (TK-10 renal): 60 µM
GI50 (SK-MEL-28 melanoma): 31.8 µM
TGI (SK-MEL-28 melanoma): > 100 µM
GI50 (OVCAR-8 ovarian): 25.1 µM
TGI (OVCAR-8 ovarian): 84.8 µM
GI50 (HT29 colon): 19.7 µM
TGI (HT29 colon): 46.6 µM
GI50 (MCF7 breast): 7.97 µM
TGI (MCF7 breast): > 100 µM
GI50 (MOLT-4 leukemia): 21.4 µM
TGI (MOLT-4 leukemia): 82 µM
GI50 (IGROV1 ovarian): 16.4 µM
TGI (IGROV1 ovarian): 70.7 µM
GI50 (NCI/ADR-RES ovarian): 16.6 µM
TGI (NCI/ADR-RES ovarian): 58.9 µM
GI50 (U251 CNS): 18.2 µM
TGI (U251 CNS): 50.7 µM
GI50 (HOP-92 NSCLC): 23.2 µM
TGI (HOP-92 NSCLC): 65 µM
GI50 (EKVX NSCLC): 19.8 µM
TGI (EKVX NSCLC): 69.2 µM
GI50 (NCI-H460 lung): 17.1 µM
TGI (NCI-H460 lung): 42.4 µM
GI50 (HL-60(TB) leukemia): 28.1 µM
TGI (HL-60(TB) leukemia): 89.2 µM
GI50 (COLO 205 colon): 16 µM
TGI (COLO 205 colon): 32.1 µM
GI50 (OVCAR-4 ovarian): 27.5 µM
TGI (OVCAR-4 ovarian): > 100 µM
GI50 (OVCAR-5 ovarian): 34.8 µM
TGI (OVCAR-5 ovarian): > 100 µM
GI50 (HOP-62 NSCLC): 25.3 µM
TGI (HOP-62 NSCLC): > 100 µM
GI50 (SF-539 CNS): 20.6 µM
TGI (SF-539 CNS): 61.6 µM
GI50 (NCI-H23 lung): 19.7 µM
TGI (NCI-H23 lung): 60.5 µM
GI50 (NCI-H522 lung): 13.8 µM
TGI (NCI-H522 lung): 39.9 µM
GI50 (RXF 393 renal): 22.6 µM
TGI (RXF 393 renal): 49.4 µM
GI50 (SF-268 CNS): 30 µM
TGI (SF-268 CNS): > 100 µM
GI50 (A498 renal): 12.8 µM
TGI (A498 renal): 47.7 µM
GI50 (UACC-62 melanoma): 20.4 µM
TGI (UACC-62 melanoma): 57.4 µM
GI50 (OVCAR-3 ovarian): 20.2 µM
TGI (OVCAR-3 ovarian): 53.6 µM
GI50 (MALME-3M melanoma): 22.7 µM
TGI (MALME-3M melanoma): 64.7 µM
GI50 (SNB-19 CNS): 36.6 µM
TGI (SNB-19 CNS): > 100 µM
GI50 (K-562 leukemia): 20.3 µM
TGI (K-562 leukemia): > 100 µM
GI50 (SF-295 CNS): 15.8 µM
TGI (SF-295 CNS): 39.5 µM
GI50 (SW-620 colon): 26.6 µM
TGI (SW-620 colon): > 100 µM
GI50 (SNB-75 CNS): 20 µM
TGI (SNB-75 CNS): 56.1 µM
GI50 (SK-MEL-2 melanoma): 24.3 µM
TGI (SK-MEL-2 melanoma): 52.1 µM
GI50 (HCC-2998 colon): 21.3 µM
TGI (HCC-2998 colon): 51.2 µM
GI50 (BT-549 breast): 31.6 µM
TGI (BT-549 breast): > 100 µM
GI50 (DU-145 prostate): 24.1 µM
TGI (DU-145 prostate): 65.2 µM
GI50 (MDA-MB-435): 4 µM
TGI (MDA-MB-435): 27.2 µM
GI50 (ACHN renal): 30.5 µM
TGI (ACHN renal): > 100 µM
GI50 (HS 578T breast): 15.3 µM
TGI (HS 578T breast): 43.6 µM
GI50 (UACC-257 melanoma): 22.4 µM
TGI (UACC-257 melanoma): 61.8 µM
